Structures are written as SMILES.

Data set [1] in a line: Acute toxicity (LD50) in rats, oral. The conditions noted are these: rat, in vivo, 14th day of observation, read-out: DL50. The procedure: The compounds of the invention are therapeutically useful substances, practically free of acute, subacute or chronic toxic effects. LD50 values, usually exceeding 1 g/kg body weight are measured in mice and in rats after oral and intraperitoneal (i.p.) administration of the compounds of the invention. Only N-diethylaminoethylamino, N'-[(R,S)-2-(2-methoxyphenoxymethyl)-1,3-thiazolidine]-malondiamide and N-β-pyridylmethylamino-N'-[(R,S)-2-(2-methoxy-phenoxy-methyl)-1,3-thiazolidine]-malondiamide show DL50 values of 0.25 and 0.85 g/Kg respectively after oral administration to rats at the 14th day of observation.

Data set [2] has as its system airways hyperreactivity, pulmonary inflation pressure (PIP). Put plainly: Airway hyperreactivity (PIP increase after autacoid challenge) after tobacco smoke exposure. Particulars: compounds: oral 20-60, i.v. 0.25-5, s.c. 2-15 mg/Kg; 6 MPHE 10-50 mg/Kg i.m.; DSCG 20-100 mg/Kg i.m.; salbutamol 0.5 mg/Kg i.v. It is filed as in vivo, guinea pig (male). The procedure: In order to show this surprising pharmacological property, the compounds of the invention were tested in a bronchial hyperreactivity animal model recently developed (see Omini C. et al., 23rd Ann. Med: S.E.P.C.R., Athens 20-24th June 1988, Abstract 15S Eur. J. Resp. Dis. in press).
The airways hyperreactivity is measured as abnormal increase of the pulmonary inflation pressure (PIP) caused by the exacerbate bronchconstrictive response that follows to an autocoid challenge after active forced tobacco smoke exposure for a 10 minutes period. The abnormal PIP increase is compared with the PIP increase observed, in the same animal, before tobacco smoke, and after autacoids challenge. Male guinea pigs (400-450 g b.w.) anaesthetized with ethylurethane and pancuronium bromide were used; the recording of PIP is performed in accordance with Konzett and Rossler methods (Naumm. Schiedeberg Arch. Exp. Path/Pharmacol. 195, 71, 1940). To evidentiate such bronchial smooth muscle hyperreactivity suitable autocoids are acetylcholine, histamine, serotonine, bradykinins.
Male guinea pigs (400-450 g) are anaesthetized with ethylurethane (i.p.) and pancuronium bromide (i.v.): the trachea is cannulated and the lungs are ventilated at constant volume by connection with "Rodent respirator" Basile apparatus mod. 7025. The pulmonary inflation pressure (PIP) is measured by connection to a side-warm of the tracheal cannula of a Bell and Howell pressure transducer (mod. P 17570) that is connected to a Beckmann (mod. R 611) dynograph. The right jugular vein is catheterized for i.v. injection of autacoids and drugs. The pharmacological experiment starts with the treatment of the animal with the autocoids (for example acetylcholine by i.v. route in the interval 2.5-10 mcg/kg) in order to induce a reversible bronchoconstruction response, measured by an increase of the pulmonary inflation pressure (PIP). This increase is recorded and it is considered to represent the basal value of the animal bronochoconstrictor response to the challenge with the autocoid.
The animal is then actively exposed for a 10 minutes time period to the tobacco smoke of alighted cigarette (directly inspired by the animal). Afterwards the animal is challenged again with the autocoid, using the dosage previously injected for evokating the basal bronchoconstrictor response. The novel challenge induces an exacerbate bronochoconstrictory response and the airway hyper-reactivity is measured as the differential increase in the PIP after tobacco smoke exposure in respect to the basal value. The challenge may be repeated in the time, (2-3 hours after smoke exposure, too) until reproducible hyper-reactive responses are obtained or at different time from tobacco exposure.
A substance may be administered by i.v., oral, subcutaneous or intramuscular route at different times before tobacco smoke exposure. A compound is considered effective when it is able to prevent almost completely the exacerbate differential increase in the PIP and normalize the BAL cell cytologic pattern at the same dose level.
Differential increases of the pulmonary inflation pressure over the basal value after autacoid challenges, ranging from 150-200% are observed after smoke exposure in the animal control group (i.e. in the absence of any pharmacological treatment).
Drug treatment may be performed using different routes: intravenous, oral, subcutaneous and/or intramuscular; the substances may be administered at different times before smoke exposure and at different dose levels.
Dose related responses have been determined for reference drugs such as 6β-methyl-prednisolone-21-hemisuccinate sodium salt (6MPHE, by i.m. route, 7 hrs. b.s.l.), sodium dichromoglycate (DSCG, by i.m. route, 2 hrs. b.s.e.) and salbutamol (by i.v. route, 20 minutes before smoke exposure); the results reported in table 4, are expressed as % protection from hyperreactive reaction. […]

As for `COc1ccccc1OCC1SCCN1C(=O)CC(=O)NCc1cccnc1` (racemic) [Table 5 3, N-β-pyridylmethyl, N'-[(R,S)-2-(2-methoxy-phenoxymethyl)-1,3-thiazolidine]-malondiamide], the LD50 at 336 h in data set [1] turned out to be 850 mg/kg. Moreover, the “prevention/inhibition of airway hyperreactivity (words)” value in data set [2] is given as “effective inhibitors of the hyperreactive reaction”.

For the origin of these results see US5206254A, “β-carbonyl-carboxyamides of 1,3-thiazolidines” (Boehringer Mannheim Italia S.p.A., priority 1988, dated 1993).
